Assay results: US7807721B2, “Compositions for inhibiting the scent tracking ability of mosquitoes in environmentally defined three dimensional spaces” (Biosensory Inc., priority 1999, dated 2010)

What was measured:
Type in all cases: in vivo
[1] = test system: adult female Aedes aegypti mosquitoes; experiment: Dual-port olfactometer tests of Example 2: test compound + CS vs CS, and Deet vs inhibitor
Text: (§1) A triple cage, dual-port olfactometer, illustrated and described in detail by Posey et al. J. Med. Entomol. 35(3), 330-334 (1998), was used to study the responses of 6 to 8 day old, laboratory-reared adult female Aedes aegypti mosquitoes. This system allows mosquitoes to choose between two different stimuli. The olfactometer is constructed of clear acrylic, comprises three test chambers in a tiered configuration, has paired removable sleeves, and mosquito traps on each chamber, and is equipped with a filtered external air supply system that allows precise temperature (+/−0.5° C.) and relative humidity (+/−2%) control. Only one chamber at a time was used for the tests. Outside air was conditioned prior to entry through the choice ports, the mosquito trap, and the olfactometer by passing through a series of charcoal filters and then heated and humidified, if necessary. One hour before initiation of tests, about 75 female Ae. aegypti mosquitoes were aspirated into the olfactometer chamber and allowed to acclimatize for that one hour before testing. Test compounds were placed into test ports upwind of the traps and olfactometer chamber. A completely randomized design was used for cage position. Competitive tests were conducted. In these competitive tests, the inhibiting compound was placed into one of the ports (treatment port); the second port (check port) had the same apparatus but no chemical inhibiting compound. In these tests, inhibiting compounds were presented in glass Pyrex petri dishes (60×15 mm) that had been cleaned and sterilized in a vacuum oven and then handled only with gloves to minimize any chance of contamination and placed into one port (Treatment Port) along with another petri dish containing 500 μL of Clara Sludge (CS), a synthetic human attractant. The other port (Check Port) contained an untreated petri with no inhibiting compound and a second petri dish containing 500 μL CS. Various concentrations (25, 100, 250, 500 and 1000 μL) of the compounds were used in these tests. Each test was conducted for a period of 3 minutes; the number of mosquitoes trapped in the baited ports, and those remaining in the cage, were counted. The data are then presented as a percentage of total mosquitoes in the cage that were attracted to each port and the percentage of mosquitoes remaining in the cage (i.e., not attracted to either port). Tests identical to that described in Example 1 were conducted with test compounds when employed together with the synthetic human attractant (CS) in a port. The test combinations were: • (1) CS vs. CS (comparison) • (2) dehydrolinalool+CS vs. CS • (3) linalool+CS vs. CS Also for comparison purposes, a known topical mosquito repellent, Deet, namely N,N-diethyl-3-methylbenzamide, was employed to compare to linalool and to dehydrolinalool. Each test compound was tested at 100, 250 and 500 μL. The results are again presented as percent mosquitoes attracted to Ports 1 or 2 or not attracted to either port.

[2] = test system: adult female Aedes aegypti mosquitoes; experiment: Competitive tests in triple cage, dual-port olfactometer: inhibitor + Clara Sludge (CS) human attractant port vs CS-only port; conditions: for % Mosquitoes Entering Treatment Port (Inhibitor Port): 3 min test; for % Mosquitoes Entering Control Port (Human Scent Port): control port 500 μL CS only; for % Mosquitoes Entering Control Port (Human Scent Port) / % Mosquitoes Remaining in Cage: 3 min; for inhibition of the ability of mosquitoes to locate the human scent (CS): all tested concentration levels (25-1000 μL)
Text: as §1, with “port).” for “port). Tests identical to that described in Example 1 were conducted with test compounds when employed together with the synthetic human attractant (CS) in a port. The test combinations were: • (1) CS vs. CS (comparison) • (2) dehydrolinalool+CS vs. CS • (3) linalool+CS vs. CS Also for comparison purposes, a known topical mosquito repellent, Deet, namely N,N-diethyl-3-methylbenzamide, was employed to compare to linalool and to dehydrolinalool. Each test compound was tested at 100, 250 and 500 μL. The results are again presented as percent mosquitoes attracted to Ports 1 or 2 or not attracted to either port.”

Culex nigripalpus = experiment: Field test, mosquito landing counts on human subject in open area surrounded by linalool dispensers
Experimental: In a further test of the inhibiting ability of the compounds of this invention, the following field test was conducted using linalool as the inhibiting compound. The study was conducted on a site adjacent to a wooded wetland breeding area in Sarasota, Fla. A trap baited with 200 ml/min CO2, equivalent to the respiration of a 91 kg (200 lb) man, ran continuously each night as an experimental control. The trap collections were first used to count the mosquito population and were then examine to identify the species present. The mosquito population was about 91% Culex nigripalpus, the St. Louis encephalitis vector in Florida.
The experimental design was a 2×2 Latin Square. Tests were conducted in two open areas 24 meters (80 feet) apart labeled Locations 1 and 2. Each area was 2.4 meters×2.4 meters (8 ft×8 ft), i.e., 5.76 m^2 (64 ft^2). Wooden poles 1.38 meters (4.5 feet) high and having inhibiting compound dispensers thereon were driven into the ground at the corners of the square area. On alternate nights, one area was unprotected by inhibiting compound while the other area had inhibiting compound dispensed from the dispenser. In operation, the dispenser emitted linalool inhibitor having 95% active ingredient at a rate of 20 mg/hr to 40 mg/hr.
Landing counts were taken from the arms, legs and torso of a test subject known to be moderately attractive to mosquitoes who was seated in the center of the square area. At 15-minute intervals over a period of 2 to 3 hours during peak mosquito activity, the subject changed position, alternating between Locations 1 and 2. […] Mosquitoes were killed to prevent double counting.
On some cue, they emerge en masse from the wooded wetland and fan out in a radial direction foraging for blood hosts. The period of peak activity is evidenced by a sharp increase in landing counts followed by a sharp decrease as the wave of outbound mosquitoes passes the test location. This behavior introduces two variables that must be taken into account. The first affects the experimental design and the second affects the interpretation of the results. […]

[3] = 100 micro liter, Port 1 Deet vs Port 2 dehydrolinalool
[4] = 100 micro liter, Port 1 Deet vs Port 2 linalool
[5] = 250 micro liter, Port 1 Deet vs Port 2 dehydrolinalool
[6] = 250 micro liter, Port 1 Deet vs Port 2 linalool
[7] = 500 micro liter, Port 1 Deet vs Port 2 dehydrolinalool
[8] = 500 micro liter, Port 1 Deet vs Port 2 linalool
[9] = 100 micro liter, Port 1 test compound vs Port 2 human scent
[10] = 250 micro liter, Port 1 test compound vs Port 2 human scent
[11] = 500 micro liter, Port 1 test compound vs Port 2 human scent
[12] = 25 micro liter test compound + 500 μL CS in treatment port
[13] = 25 micro liter test compound in treatment port
[14] = 100 micro liter test compound + 500 μL CS in treatment port
[15] = 100 micro liter test compound in treatment port
[16] = 250 micro liter test compound + 500 μL CS in treatment port
[17] = 250 micro liter test compound in treatment port
[18] = 500 micro liter test compound + 500 μL CS in treatment port
[19] = 500 micro liter test compound in treatment port
[20] = 1000 micro liter test compound + 500 μL CS in treatment port
[21] = 1000 micro liter test compound in treatment port

In the case of CCN(CC)C(=O)c1cccc(C)c1 [Deet, N,N-diethyl-3-methylbenzamide, reference compound], the “% Mosquitoes Entering Port 1 (Deet)” value [1, 3] was 60.1%, the “% Mosquitoes Remaining in Cage” value [1, 3] was 19.8% and the “% Mosquitoes Entering Port 1 (Deet)” value [1, 4] was 56.3%. For the same compound, the “% Mosquitoes Remaining in Cage” value [1, 4] was 26.2%, the “% Mosquitoes Entering Port 1 (Deet)” value [1, 5] was 48.8% and the “% Mosquitoes Remaining in Cage” value [1, 5] was 29.2%. For the same compound, the “% Mosquitoes Entering Port 1 (Deet)” value [1, 6] was 48.1%, the “% Mosquitoes Remaining in Cage” value [1, 6] was 26.2% and the “% Mosquitoes Entering Port 1 (Deet)” value [1, 7] was 42.1%. For the same compound, the “% Mosquitoes Remaining in Cage” value [1, 7] was 27.6%, the “% Mosquitoes Entering Port 1 (Deet)” value [1, 8] was 49.5% and the “% Mosquitoes Remaining in Cage” value [1, 8] was 27.3%.
With C#CC(C)(O)CCC=C(C)C (centres unmarked) [Dehydrolinalool, dehydrolinalool] the “% Mosquitoes Entering Port 2 (dehydrolinalool)” value [1, 3] was 20.1%, the “% Mosquitoes Remaining in Cage” value [1, 3] was 19.8% and the “% Mosquitoes Entering Port 1 (test compound + CS)” value [1, 9] was 18.1%. For the same compound, the “% Mosquitoes Entering Port 2 (human scent)” value [1, 9] was 63%, the “% Mosquitoes Remaining in Cage” value [1, 9] was 18.9% and the “% Mosquitoes Entering Port 2 (dehydrolinalool)” value [1, 5] was 22.5%. For the same compound, the “% Mosquitoes Remaining in Cage” value [1, 5] was 29.2%, the “% Mosquitoes Entering Port 1 (test compound + CS)” value [1, 10] was 20.1% and the “% Mosquitoes Entering Port 2 (human scent)” value [1, 10] was 59.2%. For the same compound, the “% Mosquitoes Remaining in Cage” value [1, 10] was 20.6%, the “% Mosquitoes Entering Port 2 (dehydrolinalool)” value [1, 7] was 30.3% and the “% Mosquitoes Remaining in Cage” value [1, 7] was 27.6%. For the same compound, the “% Mosquitoes Entering Port 1 (test compound + CS)” value [1, 11] was 20.6%, the “% Mosquitoes Entering Port 2 (human scent)” value [1, 11] was 55.5% and the “% Mosquitoes Remaining in Cage” value [1, 11] was 23.9%. The “% Mosquitoes Entering Treatment Port (Inhibitor Port)” value [2, 12] was 30.23%, the “% Mosquitoes Entering Control Port (Human Scent Port)” value (“% Mosquitoes Entering Control Port” for short) [2, 13] was 50.77% and the “% Mosquitoes Remaining in Cage” value ([2]; 25 micro liter test compound) was 19%. For the same compound, the “% Mosquitoes Entering Treatment Port (Inhibitor Port)” value [2, 14] was 31.13%, the “% Mosquitoes Entering Control Port” value [2, 15] was 53.87% and the “% Mosquitoes Remaining in Cage” value ([2]; 100 micro liter test compound) was 15%. For the same compound, the “% Mosquitoes Entering Treatment Port (Inhibitor Port)” value [2, 16] was 22.6%, the “% Mosquitoes Entering Control Port” value [2, 17] was 44.6% and the “% Mosquitoes Remaining in Cage” value ([2]; 250 micro liter test compound) was 32.8%. For the same compound, the “% Mosquitoes Entering Treatment Port (Inhibitor Port)” value [2, 18] was 24.8%, the “% Mosquitoes Entering Control Port” value [2, 19] was 56.47% and the “% Mosquitoes Remaining in Cage” value ([2]; 500 micro liter test compound) was 24.18%. For the same compound, the “% Mosquitoes Entering Treatment Port (Inhibitor Port)” value [2, 20] was 26.11%, the “% Mosquitoes Entering Control Port” value [2, 21] was 42.76% and the “% Mosquitoes Remaining in Cage” value ([2]; 1000 micro liter test compound) was 27.12%. For the same compound, the “inhibition of the ability of mosquitoes to locate the human scent (CS)” value [2] was “greatly inhibit”.
With C=CC(C)(O)CCC=C(C)C (centres unmarked) [Linalool, linalool] the “% Mosquitoes Entering Port 2 (linalool)” value [1, 4] was 17.5%, the “% Mosquitoes Remaining in Cage” value [1, 4] was 26.2% and the “% Mosquitoes Entering Port 1 (test compound + CS)” value [1, 9] was 22.5%. For the same compound, the “% Mosquitoes Entering Port 2 (human scent)” value [1, 9] was 50.7%, the “% Mosquitoes Remaining in Cage” value [1, 9] was 26.8% and the “% Mosquitoes Entering Port 2 (linalool)” value [1, 6] was 25.7%. The “% Mosquitoes Remaining in Cage” value [1, 6] was 26.2%, the “% Mosquitoes Entering Port 1 (test compound + CS)” value [1, 10] was 14.9% and the “% Mosquitoes Entering Port 2 (human scent)” value [1, 10] was 56.8%. The “% Mosquitoes Remaining in Cage” value [1, 10] was 28.4%, the “% Mosquitoes Entering Port 2 (linalool)” value [1, 8] was 23.1% and the “% Mosquitoes Remaining in Cage” value [1, 8] was 27.3%. For the same compound, the “% Mosquitoes Entering Port 1 (test compound + CS)” value [1, 11] was 25.7%, the “% Mosquitoes Entering Port 2 (human scent)” value [1, 11] was 55.6% and the “% Mosquitoes Remaining in Cage” value [1, 11] was 18.7%. For the same compound, the “reduction of mosquito landing counts, average” value (Culex nigripalpus; average over the three trials, linalool dispensed at 20 mg/hr to 40 mg/hr, human subject, 64 ft^2 area) was 53%, the reduction of landings (Culex nigripalpus; morning trial (7:00 AM to 9:00 AM) when mosquito activity was light) was 73% and the “landings on human subject” value (Culex nigripalpus; subject surrounded by linalool dispensed from the dispensers (unprotected: 286 landings)) was 135 landings. For the same compound, the “% Mosquitoes Entering Treatment Port (Inhibitor Port)” value [2, 12] was 21.98%, the “% Mosquitoes Entering Control Port” value [2, 13] was 56.89% and the “% Mosquitoes Remaining in Cage” value ([2]; 25 micro liter test compound) was 21.14%. The “% Mosquitoes Entering Treatment Port (Inhibitor Port)” value [2, 14] was 31.3%, the “% Mosquitoes Entering Control Port” value [2, 15] was 45.61% and the “% Mosquitoes Remaining in Cage” value ([2]; 100 micro liter test compound) was 23.08%. The “% Mosquitoes Entering Treatment Port (Inhibitor Port)” value [2, 16] was 16.57%, the “% Mosquitoes Entering Control Port” value [2, 17] was 47.3% and the “% Mosquitoes Remaining in Cage” value ([2]; 250 micro liter test compound) was 36.13%. For the same compound, the “% Mosquitoes Entering Treatment Port (Inhibitor Port)” value [2, 18] was 16.13%, the “% Mosquitoes Entering Control Port” value [2, 19] was 44.56% and the “% Mosquitoes Remaining in Cage” value ([2]; 500 micro liter test compound) was 39.31%. The “% Mosquitoes Entering Treatment Port (Inhibitor Port)” value [2, 20] was 27.24%, the “% Mosquitoes Entering Control Port” value [2, 21] was 44.14% and the “% Mosquitoes Remaining in Cage” value ([2]; 1000 micro liter test compound) was 31.3%. The “inhibition of the ability of mosquitoes to locate the human scent (CS)” value [2] was “greatly inhibit”.
